From PMC8579695, “The Stringent Response Inhibits 70S Ribosome Formation in Staphylococcus aureus by Impeding GTPase-Ribosome Interactions” (mBio, 2021)

Key:
Era = Era (Staphylococcus aureus, UniProt Q2FGF6); assay: DRaCALA binding of 32P-labeled nucleotides to 6×His-tagged Era; details: for Bmax, Era: mean ± SEM, Bmax values indicate the fraction bound
Method: (§1) The RA-GTPases RsgA, Era, RbgA, and HflX can bind to the guanosine nucleotides GTP, GDP, ppGpp, and pppGpp. Our previous work observed higher binding affinities for ppGpp over GTP, pointing toward a difference in binding between 5′ di- or triphosphate nucleotides ([27]). […] Furthermore, these previous experiments were performed using recombinant proteins fused to large MBP tags, which could impact binding affinity determination. To examine the nucleotide binding affinities of these RA-GTPases for GDP in comparison to ppGpp, pppGpp, and GTP, and in the absence of a large tag, we used a differential radial capillary action of ligand assay (DRaCALA) with recombinant RsgA, RbgA, Era, and HflX fused to a smaller 6× His tag (Fig. 1B; see also Fig. S2A to C in the supplemental material) ([36]). In each case, the affinities of 5′ diphosphate-containing GDP and ppGpp were similar in the low μM range and were 2- to 6-fold higher than the affinities of either GTP or pppGpp (Table 1).
(§2) Supplementary file : FIG S2 Examination of the binding of GDP, ppGpp, GTP, and pppGpp to RA-GTPases by DRaCALA. (A to C) Determination of binding affinities and Kd values for ^32P-labeled nucleotides to purified recombinant 6×His-tagged RsgA (A), Era (B), and HflX (C). Kd values were determined from the binding curves as previously described ([36]). (D to F) DRaCALA binding assay of recombinant RsgA (D), Era (E), and HflX (F) binding to ^32P-labeled GTP, ppGpp, and pppGpp in the presence or absence of 100 μM cold competitors (GTP, GDP, ppGpp, pppGpp, and ATP). All experiments were carried out in triplicate, with error bars representing standard deviations. Download FIG S2, TIF file, 0.9 MB.
(§3) The synthesis of (p)ppGpp and differential radial capillary action of ligand assay (DRaCALA) binding and competition assays were performed as described previously ([27]), using recombinant, 6×His-tagged protein at the concentrations specified in the figure legends.

RbgA = RbgA (Staphylococcus aureus, UniProt A0A0H2XK72); assay: DRaCALA binding of 32P-labeled nucleotides to 6×His-tagged RbgA; details: for Bmax, RbgA: mean ± SEM, Bmax values indicate the fraction bound
Text: FIG 1 Nucleotide binding characteristics of RA-GTPases. (A) Schematic representation of the domain structure of Era, RsgA, RbgA, and HflX from S. aureus. The conserved GTPase domain (G domain) is colored in green, and accessory domains are shown. (B) Determination of binding affinities and Kd values for ^32P-labeled GTP, GDP, ppGpp, and pppGpp with purified recombinant 6×His-tagged RbgA using DRaCALA, as previously described ([36]). Each point is the mean average of at least three technical replicates, and error bars indicate standard deviations. (C) Binding assay (DRaCALA) of recombinant RbgA binding to ^32P-labeled GTP, ppGpp, and pppGpp in the presence of an excess of cold competitor (GTP, GDP, ppGpp, pppGpp, or ATP). All experiments were carried out in triplicate, with error bars representing standard deviations.
as §1, §3

RsgA = RsgA (Staphylococcus aureus, UniProt P67682); assay: DRaCALA binding of 32P-labeled nucleotides to 6×His-tagged RsgA; details: for Bmax, RsgA: mean ± SEM, Bmax values indicate the fraction bound
Method: as §1, §2, §3

HflX = HflX (Staphylococcus aureus, UniProt Q2FYY9); assay: DRaCALA binding of 32P-labeled nucleotides to 6×His-tagged HflX; details: for Bmax, HflX: mean ± SEM, Bmax values indicate the fraction bound
Method: as §1, §2, §3

[1] = test system: HflX binding to 50S ribosomes; assay: Stopped-flow fluorescence kinetics of HflX-Atto488 association to 50S subunits; parameters: species or system Staphylococcus aureus
Method: FIG 3 Stopped-flow kinetic parameters of RA-GTPase association to the ribosomal subunits. (A) Schematic representation of the experimental setup for stopped-flow analysis. Nucleotides (brown circles), 50S subunits (orange oval), and Atto488-labeled RA-GTPases (purple hexagon) are indicated. Arrows indicate the direction of syringe movement. Atto-488 was excited using a 470-nm LED, and fluorescence was detected through a 515-nm long-pass filter. (B and C) Fluorescent change upon mixing 0.2 μM RbgA-Atto488 (B) or HflX-Atto488 (C) with 0.2 μM 50S ribosomal subunits in the presence of 100 μM GTP, ppGpp, and pppGpp or in the apo state using the stopped-flow fluorescence apparatus. Fluorescently labeled protein was also mixed with buffer lacking 50S subunits as a mixing control. Fluorescence of the reaction was tracked using exponential sampling for 10 s, and each curve represents the mean average of at least five technical replicates. (D) kapp1 dependence on 50S concentration for HflX complexed with GTP (green), ppGpp (pink), and pppGpp (black). (E) Same as for panel D for the kapp2 dependence. (F and G) Sum and product analyses of apparent rates during HflX association to the 50S subunit. HflX-Atto488 (0.05 μM) was mixed with increasing titrations of 50S ribosomal subunits over the fluorescently labeled protein in the presence of 20 μM GTP or ppGpp. The resultant traces (see Fig. S4) were analyzed by nonlinear regression using two exponential terms. The sum (F) and product (G) of apparent rates (kapp1 [D] and kapp2 [E]) were plotted as a function of the total concentration of the 50S subunits and HflX protein to determine the microscopic constants k1, k-1, k2, and k-2 (Table 2) and the resulting dissociation constant (Kd) (see Materials and Methods). Error bars represent the standard deviations of the apparent rates of four or more individual traces (D and E) or the standard errors of the two-step analysis (F and G).
Next, we used a constant concentration of protein in the presence of 200-fold excess of each nucleotide and titrated it with increasing concentrations of ribosomal subunits (see Fig. S4). […]
For initial controls, 0.2 μM Atto-488-labeled proteins were rapidly mixed with 0.2 μM E. coli 50S ribosomal subunits (purified as described elsewhere) in TAKM7 buffer (25 mM Tris-HCl [pH 7.4], 70 mM ammonium acetate, 30 mM KCl, 7 mM MgCl2) using an SX20 stopped-flow apparatus (Applied Photophysics) in the presence or absence of GTP, ppGpp, and pppGpp. […] Atto-488 was excited using a 470-nm LED and fluorescence was detected through a 515-nm long-pass filter. Reactions were monitored for 10 s, with 1,000 total data points per reaction. Each condition was subject to at least five technical repeats, with curves representing the mean average fluorescence of the technical repeats. […]

[2] = molecular target: Era association to the 30S ribosomal subunit (Staphylococcus aureus, UniProt Q2FGF6); assay: In vitro ribosome association assay (sucrose gradient, α-His Western immunoblot), Era; format: binding; details: 40 μM nucleotide; compared to apo, GTP, or GMPPNP-bound states
Text: (§4) It is well characterized that rRNA transcription decreases during the stringent response ([39]). In addition, the GTPase activity of ribosome assembly cofactors is inhibited by (p)ppGpp, both of which contribute to a reduction in mature ribosomes within the cell ([27]). To examine mechanistically how (p)ppGpp-GTPase interactions affect the ability of RA-GTPases to associate with ribosomal subunits, we examined the association of each GTPase to either the 30S or 50S ribosomal subunit in the presence of GDP, GTP, ppGpp, and pppGpp, as well as GMPPNP, a nonhydrolyzable analogue of GTP. The production and isolation of immature subunits, which can comprise several different immature states, introduces a large degree of heterogeneity, and so here we, and others, use homogenous mature particles as a system to examine the binding event, rather than the role of GTPase activity in downstream maturation ([11], [12], [29], [40], [41]). His-tagged GTPases were preincubated with highly pure, salt-washed 70S S. aureus ribosomes in a low-magnesium buffer to encourage ribosomal subunit dissociation, and the amount of each GTPase associated with each of the subunits was quantified by Western immunoblotting with anti-His antibodies after sucrose gradient separation. […]
(§5) FIG 2 (p)ppGpp and GDP binding reduces RA-GTPase association to the ribosome. […] After subunit separation and precipitation, bound proteins were detected in the 30S fraction using HRP-conjugated α-His antibodies. […] Bound proteins were detected in the 50S fraction using HRP-conjugated α-His antibodies. […]
(§6) A 500 nM concentration of recombinant 6×His-tagged RA-GTPase was incubated at room temperature for 5 min with 200 nM S. aureus 70S ribosomes in dissociation buffer (20 mM Tris [pH 7.5], 120 mM NH4Cl, 1.5 mM MgCl2, 2 mM β-mercaptoethanol) in the apo form and in the presence of 40 μM GTP, GMPPNP, GDP, ppGpp, or pppGpp. […] Gradients were fractionated by upward displacement of 250-μl aliquots, which were analyzed for RNA content at an absorbance of 260 nm. […]

[3] = test system: HflX association to the 30S and 50S ribosomal subunits; assay: In vitro ribosome association assay (sucrose gradient, α-His Western immunoblot), HflX; format: binding, Staphylococcus aureus; details: 40 μM nucleotide; compared to apo, GTP, or GMPPNP-bound states
Text: as §4, §5, §6

[4] = test system: RA-GTPases RsgA, RbgA, Era, and HflX; assay: DRaCALA binding and competition assays across the four RA-GTPases; parameters: species or system Staphylococcus aureus; details: 100 μM cold competitor
Text: FIG 1 Nucleotide binding characteristics of RA-GTPases. (A) Schematic representation of the domain structure of Era, RsgA, RbgA, and HflX from S. aureus. The conserved GTPase domain (G domain) is colored in green, and accessory domains are shown. (B) Determination of binding affinities and Kd values for ^32P-labeled GTP, GDP, ppGpp, and pppGpp with purified recombinant 6×His-tagged RbgA using DRaCALA, as previously described ([36]). Each point is the mean average of at least three technical replicates, and error bars indicate standard deviations. (C) Binding assay (DRaCALA) of recombinant RbgA binding to ^32P-labeled GTP, ppGpp, and pppGpp in the presence of an excess of cold competitor (GTP, GDP, ppGpp, pppGpp, or ATP). All experiments were carried out in triplicate, with error bars representing standard deviations. […]
Supplementary file : FIG S2 Examination of the binding of GDP, ppGpp, GTP, and pppGpp to RA-GTPases by DRaCALA. […] Kd values were determined from the binding curves as previously described ([36]). […]
Structural data places (p)ppGpp within the GTP-binding site of the RA-GTPase RbgA ([6]), indicating a competitive mode of inhibition. […] Based on our measured affinities (Table 1), we speculate that both GDP and ppGpp will outcompete other nucleotides for occupancy of the binding site. […]

Sequence of RsgA (P67682 whole entry): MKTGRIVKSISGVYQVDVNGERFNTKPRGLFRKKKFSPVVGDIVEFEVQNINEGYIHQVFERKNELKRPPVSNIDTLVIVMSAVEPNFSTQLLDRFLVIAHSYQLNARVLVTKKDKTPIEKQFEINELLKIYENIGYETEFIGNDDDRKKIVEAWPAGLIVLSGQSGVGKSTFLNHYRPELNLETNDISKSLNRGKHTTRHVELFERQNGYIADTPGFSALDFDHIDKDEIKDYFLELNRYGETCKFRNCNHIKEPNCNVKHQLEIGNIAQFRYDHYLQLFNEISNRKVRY
Sequence of RbgA (A0A0H2XK72 entry or part of it): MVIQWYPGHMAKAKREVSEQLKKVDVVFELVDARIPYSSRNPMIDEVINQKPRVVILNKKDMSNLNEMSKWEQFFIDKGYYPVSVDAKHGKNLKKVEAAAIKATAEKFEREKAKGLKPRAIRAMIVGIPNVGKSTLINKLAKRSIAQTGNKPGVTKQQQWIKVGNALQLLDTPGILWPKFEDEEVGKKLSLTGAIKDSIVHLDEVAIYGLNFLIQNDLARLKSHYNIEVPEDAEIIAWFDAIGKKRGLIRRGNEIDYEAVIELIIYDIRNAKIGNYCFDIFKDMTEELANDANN
Sequence of Era (Q2FGF6 whole entry, the tested form may be a part): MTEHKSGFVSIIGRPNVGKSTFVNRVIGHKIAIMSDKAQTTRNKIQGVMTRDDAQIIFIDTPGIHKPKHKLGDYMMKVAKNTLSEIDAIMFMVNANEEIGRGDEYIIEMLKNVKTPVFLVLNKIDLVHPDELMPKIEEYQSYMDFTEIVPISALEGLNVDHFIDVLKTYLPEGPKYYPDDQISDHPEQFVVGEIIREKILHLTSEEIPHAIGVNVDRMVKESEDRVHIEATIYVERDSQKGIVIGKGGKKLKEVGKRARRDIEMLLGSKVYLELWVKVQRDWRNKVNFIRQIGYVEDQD
Sequence of HflX (Q2FYY9 entry or part of it): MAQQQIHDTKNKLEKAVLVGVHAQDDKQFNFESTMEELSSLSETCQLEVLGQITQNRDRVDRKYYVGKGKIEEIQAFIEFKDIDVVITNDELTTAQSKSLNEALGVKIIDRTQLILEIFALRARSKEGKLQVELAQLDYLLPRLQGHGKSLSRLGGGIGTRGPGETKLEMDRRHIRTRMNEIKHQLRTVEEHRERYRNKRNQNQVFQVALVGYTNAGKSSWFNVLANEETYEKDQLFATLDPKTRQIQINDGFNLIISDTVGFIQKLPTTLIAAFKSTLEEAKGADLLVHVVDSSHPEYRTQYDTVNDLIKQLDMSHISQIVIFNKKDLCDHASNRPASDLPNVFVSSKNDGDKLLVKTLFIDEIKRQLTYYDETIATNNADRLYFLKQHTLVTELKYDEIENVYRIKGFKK
Sequence of Era association to the 30S ribosomal subunit (Q2FGF6 whole entry): as the sequence (Q2FGF6 whole entry, the tested form may be a part) above

Nc1nc2c(ncn2[C@@H]2O[C@H](COP(=O)(O)OP(=O)(O)OP(=O)(O)O)[C@@H](O)[C@H]2O)c(=O)[nH]1 [GTP]
Kd (Era): 11.5 ± 1.6 µM
Bmax, Era (Era): 0.3 ± 0.0
Kd (RbgA): 18.5 ± 5.4 µM
Bmax, RbgA (RbgA): 0.4 ± 0.0
Kd (RsgA): 3.6 ± 0.4 µM
Bmax, RsgA (RsgA): 0.8 ± 0.0
Bmax, HflX (HflX): 0.7 ± 0.3
kapp2 of HflX association to 50S ([1]; GTP: hyperbolic, plateau, ppGpp: independent of 50S concentration): ~2 s⁻¹
linear increase in kapp1 of HflX, GTP relative to ppGpp or pppGpp ([1]; dependence on 50S concentration): 2 fold

Nc1nc2c(ncn2[C@@H]2O[C@H](COP(=O)(O)OP(=O)(O)O)[C@@H](O)[C@H]2O)c(=O)[nH]1 [GDP]
Kd (Era): 4.9 ± 0.7 µM
Bmax, Era (Era): 0.5 ± 0.0
Kd (RbgA): 6.1 ± 1.1 µM
Bmax, RbgA (RbgA): 0.5 ± 0.0
Kd (RsgA): 1.8 ± 0.2 µM
Bmax, RsgA (RsgA): 0.9 ± 0.0
Kd (HflX): 4.9 ± 0.7 µM
Bmax, HflX (HflX): 0.7 ± 0.0
reduction in ribosome binding of Era [2]: 2 fold
reduction in ribosome binding of HflX [3]: 2 fold
competition of cold unlabeled nucleotide with 32P-labeled GTP, ppGpp, pppGpp [4]: competing more effectively
